Experimental data as given in US10363229B2, “Methods and compositions for the treatment of cancer” (priority 2009, dated 2019).

What was measured:
[1] = test system: melanoma cells; test: Soft agar assay for colony formation; type: cell-based, mouse; settings: 2% methyl sulfone; control hundreds of colonies
Method: Cells were plated on 8-35 mm plates that contained base agar with and without 2% methyl sulfone. To make base agar, 1% agar (DNA grade; Difco Bacto Agar; Becton Dickenson and Company, Sparks, Md.), was mixed in water at room temperature, melted in a microwave, and cooled to 40° C. before using. For drug plates, 1% agar was combined (1:1) with 4% methyl sulfone in 2×RPMI medium with sodium bicarbonate supplemented with 10% FBS and 5% penicillin/streptomycin. For control plates, 1% agar was combined (1:1) with 2×RMPI medium. Agar +/−2% methyl sulfone was added to appropriate 35 mm tissue culture plates and stored overnight at 4° C. The next day top agar and cells were placed on top of the base agar. Top agar was made with 0.66% agar in water. The agar was melted in a microwave, cooled, and stored at 40° C. 2×RPMI medium and 4% methyl sulfone was also stored at 40° C. Cells were trypsinized and counted for a final concentration of 5×10^3 cells/plate. Cell counts were adjusted to 2×10^5 cells/ml and 0.05 ml of the cell suspension was added to 15 ml centrifuge tubes (2 each). Base agar plates were removed from 4° C. and allowed to warm to room temperature for approximately 30 minutes prior to plating. […] Colonies were photographed and counted with a dissecting microscope. […]

[2] = test system: p27 in melanoma cells; test: Immunofluorescence of p27; type: cell-based, mouse; settings: cells treated with methyl sulfone
Method: Cells were grown on 12 mm coverslips until 60 to 70% confluent. 2% methyl sulfone was added to half the coverslips and normal medium to other half. After 24, 48, and 96 hours, coverslips were placed in porcelain holders and incubated in 37° C. PBS for 30 seconds followed by incubation in 37° C. 4% paraformaldehyde for 10 minutes. Cells were washed in PBS for 5 minutes followed by incubation in 0.2% Triton X-100/PBS for 5 minutes at room temperature. Chicken serum ([…] in 1 ml PBS) was added to cells for 30 minutes. Cells were washed 3 times in 0.2% Triton X-100/PBS, 3 minutes each. Rabbit anti-p27 polyclonal antibody, (Santa Cruz Biotech, Calif.) was diluted 1/250 in 1% BSA/PBS and added to coverslips for 1.5 hours. Cells were washed 5 times in 0.2% Triton X-100/PBS, 3 minutes each. Secondary antibody, Alexa Fluor 488 chicken anti-rabbit antibody, was diluted 1/1000 in 1% BSA/PBS and added to coverslips for 30 minutes in the dark. Cells were washed five times in 0.2% Triton X-100/PBS, three minutes each. Cells were washed twice in PBS for two minutes each and placed in DAPI, diluted 1/1000 in PBS, for 5 minutes. Cells were washed in PBS for one minute. SlowFade was added to slides, coverslips were placed face down and sealed with nail polish. […]

[3] = test system: microtubules in melanoma cells; test: Immunofluorescence of microtubules, incl. vinblastine stability test; type: cell-based, mouse
Method: Cells were plated in 6-100 mm tissue culture plates, each containing 1 polylysine-coated 10-well slide, or plated onto polylysine-coated coverslips. Once cells were approximately 50% confluent, 2% methyl sulfone was added to cells for 10, 30, 60, 90, and 120 minutes. At each time point cells were placed in microtubule stabilizing buffer ( ) for 10 minutes followed by incubation in −20° C. methanol for 5 minutes. Cells were washed twice in 0.1% Triton X-100 in PBS at room temperature, then incubated with mouse monoclonal anti-alpha-tubulin antibody (Santa Cruz Biotech, Calif.; diluted 1/200 in 1% BSA/PBS) for 1.5 hours. Cells were washed 5 times in 0.1% Triton X-100/PBS, 3 minutes each. Cells were incubated with secondary antibody (Alexa Fluor 568 rabbit anti-mouse antibody; diluted 1/100 in 1%/PBS) for 30 minutes in the dark. Cells were washed five times in 0.1% Triton X-100/PBS, three minutes each. Cells were washed two times in PBS at 2 minute intervals and incubated with DAPI (1 μg/ml in PBS) for 5 minutes at room temperature and in the dark. Cells were washed in PBS for one minute. SlowFade was added to glass slides, coverslips were placed cell side down and sealed with nail polish. Microtubules were viewed at the Center for Cell Analysis and Modeling, University of Connecticut Health Center, Farmington, Conn., with an Axioplan CCD Microscope equipped with a 40×1.3 NA FL objective lens and Photometrics PXL-EEV37 high speed digital cooled CCD camera via Metamorph image acquisition and analysis software (Universal Imaging Corp., Downington, Pa.).
One assay to test stability of microtubules is to give cells increasing concentrations of a microtubule-disassembly drug and use immunofluorescence microscopy to assess microtubule lengths (Caron et al). A higher concentration of drug will be required to disassemble the more stabilized microtubules. We used different concentrations of the anti-microtubule drug, vinblastine, to assess microtubule stability in control cells and cells incubated with 2% methyl sulfone.

[4] = test system: CEM leukemic lymphocytes; test: Apoptosis of leukemic lymphocytes by Flow Cytometry; type: cell-based, human
Method: CEM leukemic lymphocytes were also incubated in the presence or absence of 10% methyl sulfone.
(§1) After 20 hours, cells were incubated with fluorescent antibodies to identify T-cells, B-cells and neutrophils, and then processed by Flow Cytometry (FIG. 15).

[5] = test system: neutrophils from healthy volunteers; test: Apoptosis of normal neutrophils by Flow Cytometry; type: cell-based, human; settings: 10% methyl sulfone, 20 hours
Method: Blood was drawn from healthy volunteers and white blood cells (e.g., lymphocytes, neutrophils) were enriched using Ficoll-Plaque. Cells were incubated in Petri dishes containing MEM with 7% fetal calf serum in a CO2 (5%) incubator at 37° C.; Methyl sulfone was present at concentrations of 0, 3, 6, or 10%. After 20 hours, cells were incubated with antibodies specific to T-lymphocytes (CD3 and CD4 T-cells), B-lymphocytes (B-cells) and neutrophils, and the percent of apoptotic cells was determined by Flow Cytometry. This is a technique that identifies specific cell types (e.g., CD3 T-cells, CD4 T-cells, B-cells, neutrophils) within a mixed population of blood cells, and then determines whether the cells are alive or apoptotic.
as §1

Substance: methyl sulfone
- colony formation on soft agar (anchorage-independent growth) [1]: no colony formation
- localization of p27 [2]: localized in the nuclei
- time to microtubule disassembly after adding drug ([3]; 2% methyl sulfone): ≤ 10 min
- microtubules in the presence of vinblastine (stability) ([3]; 2% methyl sulfone plus 10^−7 M vinblastine): clearly visible
- pattern of microtubule reassembly ([3]; 2% methyl sulfone, over the next two hours): re-appeared in an orderly pattern
- CEM leukemic lymphocytes killed ([4]; 10% methyl sulfone, 20 hours): 92%
- leukemic cells induced into apoptosis ([4]; summary in the description, concentration not given): more than 90%
- effect on neutrophils [5]: unharmed
